Source: patent publication US20230147196A1, “MITOCHONDRIAL DYSFUNCTION IMPROVING AGENT” (priority 2020, published 2023)

Tests used:
[1] = test system: hippocampus-derived neurons; experiment: Neuronopathy model: single neuron-astrocyte coculture treated with Aβ peptide (Aβ25-35), Sholl analysis of dendrites and axons; assay type: cell-based, ICR mouse; conditions: for neuropathy of nerve axons (branches and elongation, Tau antibody staining, Sholl analysis) / neuropathy of nerve dendrites (branches and elongation, MAP2 antibody staining, Sholl analysis): Aβ25-35 1 μM, test compound 0.3 μM, exposed for three days, FIGS. 2 and 3; for neurotoxicity caused by Aβ: primary neurons, low concentration of 0.3 μM, summary statement
Protocol: In a neuronopathy model due to Aβ peptide of which a single neuron-astrocyte coculture sample is treated with Aβ peptide, an improvement effect in neurodegeneration of a MKH derivative was evaluated. Since mitochondrial affinity of the derivative and reconvertibility to MKH are expected affect the MKH delivery by an MKH derivative, a cationic derivative (MKH-DMG) presumed to have a high affinity, an anionic derivative (MKH-SUC) having a high intracellular reconversionability, and an oxidant of MKH (MK-4) used in clinical study were evaluated (Chem. 7).
After culturing (2 weeks) astrocytes isolated from the cerebral cortex of 0- to 1-day-old ICR mouse, regions were divided in dots on a slide glass and cultured. After culturing for one more week, hippocampus-derived neurons of 0- to 1-day-old ICR mouse were seeded and cocultured. From day 1 of seeding neuron, Aβ25-35 (1 μM) and a test compound (0.3 μM) were exposed for three days, and morphological change of neurons was observed. Dendrites (MAP2 antibody) and axons (Tau antibody) of nerves were stained by immunostaining and analyzed. Dendrites and axons were evaluated for changes in branches and elongation of dendrites and axons by Sholl analysis method.

neural cells = experiment: Mitochondrial dysfunction caused by Complex I inhibitor rotenone in neural cells; assay type: cell-based; conditions: summary statement on the respiratory chain inhibitor tests in neural cells
Protocol: Effects of an MKH derivative and a PKH derivative to mitochondrial dysfunctions caused by Complex I inhibitor rotenone ([…] Complex II inhibitor (3-nitro propionic acid (3-NP)), Complex III inhibitor (antimycin A), and a depolarizing agent (carbonylcyanide-m-chlorophenylhydrazone, CCCP) in neural cells were evaluated. The effects were evaluated with cell death (viability measurement with cell titer blue), inhibition of ATP production (ATP measurement with cell titer glo), and membrane potential reduction (JC-1 staining: depolarization (green), hyperpolarization (red)).

Molecule | neuropathy of nerve axons (branches and elongation, Tau antibody staining, Sholl analysis) [1] | neuropathy of nerve dendrites (branches and elongation, MAP2 antibody staining, Sholl analysis) [1] | neurotoxicity caused by Aβ [1] | mitochondrial function (respiratory chain) damage / mitochondrial dysfunction (membrane potential reduced mitochondria) (neural cells)
CC(C)=CCC/C(C)=C/CC/C(C)=C/CC/C(C)=C/Cc1c(C)c(OC(=O)CCC(=O)O)c2ccccc2c1OC(=O)CCC(=O)O [MKH-SUC] | significantly improved | significantly improved | can improve | can improve
CC(C)=CCC/C(C)=C/CC/C(C)=C/CC/C(C)=C/Cc1c(C)c(OC(=O)CN(C)C)c2ccccc2c1OC(=O)CN(C)C [MKH-DMG] | significantly improved | significantly improved | can improve | can improve
Menaquinone-4 [MK-4, reference compound] | No improvement effect | No improvement effect | – | –
